Test results as given in the CATMoS acute toxicity set (Mansouri et al. 2021).

Assay: rat acute oral toxicity
Details: in vivo
Text: […]The data set underlying the modeling effort for this project was initially compiled by NICEATM and U.S. EPA’s CCTE. Briefly, LD50 data were collected from rat acute oral systemic toxicity tests, including limit tests, ranges/confidence intervals, and discrete LD50 values. The full data set included 21,200 LD50 entries for 15,688 substances. […] Data were reviewed to ensure that LD50 values with obvious errors in the extracted data such as unit conversion errors (e.g., comma and decimal separator misplacements) were either fixed or removed. After this review, 16,209 LD50 values remained. Many of the chemicals represented had multiple LD50 entries, requiring that a single representative value per Chemical Abstracts Service Registry Number (CASRN) identifier be defined to facilitate modeling efforts. Based on ATWG feedback and to define the representative LD50 as a protective value while accounting for the distribution across multiple LD50s, the median of the lowest quartile was computed using only discrete LD50 values (omitting limit test data and range and confidence interval data). A detailed summary of the data compilation is available online on the NICEATM webpage dedicated to the collaborative modeling project (NTP 2020).
[…][…] For categorical designations, limit test and range/confidence interval LD50 data were integrated wherever possible. As such, the number of chemicals with end point values/calls varies across the modeling end points (Table 3) based on whether chemicals had representative LD50 values and/or other data. If a chemical had both, the representative value was used to determine categorical calls rather than limit test data. Some data were useable only for certain end points and categories depending on the thresholds. For example, ranges that spanned multiple hazard categories were considered only for the binary (very toxic/nontoxic) end points and omitted from rendering a determination for hazard category assignment.
[…]The final data set comprising 11,992 chemicals was split into training and evaluation sets […], respectively. This process was performed semirandomly by ordering chemicals based on the five end points (categorical and continuous LD50 values) and partitioning every fourth record into the evaluation set accordingly. This approach was taken to ensure an equivalent distribution of the LD50 values and the different hazard categories between the training and the evaluation sets without supervised sampling of the chemicals based on structures (Figure 1A). The sources of the chemical structures were also kept equivalent between the two sets, with chemical structures obtained from DSSTox, being the highest quality, representing over 75% of each set (Figure 1B).

Compound	LD50
Cc1nnc(-c2ccccc2)c(=O)n1N	1180 mg/kg
CCCOC(C)=O	9370 mg/kg
CCCCCCCC(=O)OCC(COC(=O)CCCCCCC)OC(=O)CCCCCCC	33300 mg/kg
O=S(=O)(O)OCCOc1ccc(Cl)cc1Cl	480 mg/kg
O=[N+]([O-])c1ccc(O)cc1	170 mg/kg
CCCC1CC(C)(OC(C)=O)CCO1 (stereo not drawn)	4300 mg/kg
O=C(O)c1cc(Oc2ccc(C(F)(F)F)cc2Cl)ccc1[N+](=O)[O-]	1300 mg/kg
Cc1ccc(N)cc1Cl	302 mg/kg
ClC1=C(Cl)C2(Cl)C3C(Cl)C(Cl)CC3C1(Cl)C2(Cl)Cl (stereo not drawn)	200 mg/kg
CC(COCC(C)OC(=O)c1ccccc1)OC(=O)c1ccccc1 (stereo not drawn)	3300 mg/kg
CN(C)CCC=C1c2ccccc2CCc2ccccc21	280 mg/kg
COCC(C)OC(C)=O (stereo not drawn)	5160 mg/kg
Oc1ccc(Cl)cc1	500 mg/kg
S=c1[nH]c(=S)[nH]c(=S)[nH]1	1180 mg/kg
Oc1cc(Cl)c(Cl)cc1Cl	820 mg/kg
COc1cc(OC)nc(Oc2cccc(Oc3nc(OC)cc(OC)n3)c2C(=O)O)n1	2640 mg/kg
Cc1c(N)cccc1N	1000 mg/kg
CCCCN(CC)C(=O)SCCC	921 mg/kg
CC(C#N)CCC#N (stereo not drawn)	170 mg/kg
O=P(OC(CCl)CCl)(OC(CCl)CCl)OC(CCl)CCl	1850 mg/kg
O=c1oc2ccccc2c(O)c1C1CC(c2ccc(-c3ccc(Br)cc3)cc2)Cc2ccccc21 (stereo not drawn)	0.16 mg/kg
O=C(O)c1ccccc1-c1c2cc(I)c(=O)c(I)c-2oc2c(I)c(O)c(I)cc12	1840 mg/kg
NC=O	5580 mg/kg
Cn1cnc([N+](=O)[O-])c1Sc1ncnc2nc[nH]c12	400 mg/kg

Compound	LD50
OCCOCCOCCO	17000 mg/kg
NCCCOCCOCCOCCCN	2850 mg/kg
O=[N+]([O-])c1ccc(Cl)cc1Cl	379 mg/kg
C=CCOC(=O)c1ccccc1C(=O)OCC=C	656 mg/kg
CCCCCCCCC=CCCCCCCCCOCCO	2700 mg/kg
CCCCOCCOCCOC(OCCOCCOCCCC)c1ccc2c(c1)OCO2	2940 mg/kg
Cc1cccc(Nc2cc(Cl)nc(SCC(=O)O)n2)c1C	1050 mg/kg
COC(=O)c1ccccc1O	887 mg/kg
Cc1ccc(S(N)(=O)=O)cc1	2330 mg/kg
C1=CC2C3C=CC(C3)C2C1 (stereo not drawn)	366 mg/kg
CCOP(=S)(OCC)Oc1cc(Cl)c(SC)cc1Cl	9.1 mg/kg
NCCCCCCN	750 mg/kg
Clc1nc(Cl)nc(Cl)n1	315 mg/kg
CCCNC(=O)NS(=O)(=O)c1ccc(Cl)cc1	2150 mg/kg
CN(CCCCCC(=O)O)S(=O)(=O)c1ccccc1 (racemic)	3040 mg/kg
CNC(=O)ON=C1C(Cl)C2CC(C#N)C1C2 (stereo not drawn)	19 mg/kg
CN(Cc1cnc2nc(N)nc(N)c2n1)c1ccc(C(=O)N[C@@H](CCC(=O)O)C(=O)O)cc1	135 mg/kg
CCC(=O)O[C@](Cc1ccccc1)(c1ccccc1)[C@H](C)CN(C)C	135 mg/kg
CCN(CC)C(=S)S	1500 mg/kg
CCC(C)C(C)C(C)CCc1ccc(O)cc1 (stereo not drawn)	2100 mg/kg
CC(C)c1ccc2ccc(C(C)C)cc2c1	4130 mg/kg
N=C(NCCCCCCNC(=N)NC(=N)Nc1ccc(Cl)cc1)NC(=N)Nc1ccc(Cl)cc1	1180 mg/kg
CCOC(=O)C(O)(c1ccc(Cl)cc1)c1ccc(Cl)cc1	700 mg/kg
CS(=O)(=O)Cl	50 mg/kg

Assay: GHS categories as the set defines them, by LD50: 1 up to 5, 2 up to 50, 3 up to 300, 4 up to 2000, 5 above 2000 mg/kg
Details: rat; in vivo; po

Compound	GHS category
C[C@H]1O[C@H](OC[C@H]2O[C@H](O)[C@H](OS(=O)(=O)O)[C@@H](OS(=O)(=O)O)[C@@H]2OS(=O)(=O)O)[C@H](OS(=O)(=O)O)[C@@H](OS(=O)(=O)O)[C@@H]1O	5
Cc1ccccc1N1C(=O)c2cc(S(N)(=O)=O)c(Cl)cc2NC1C (stereo not drawn)	5
Cc1cccc2ncc(C(=O)NC3CCCCC3)c(=O)n12	3
CCCCCCCCCCCC(=O)OCC(C)(C)C=NCC1(C)CC(N=CC(C)(C)COC(=O)CCCCCCCCCCC)CC(C)(C)C1 (stereo not drawn)	5
B12B3B4B1C234	5
C=C[C@](C)(O)CC[C@@H]1[C@@]2(C)CCCC(C)(C)[C@@H]2CC[C@@]1(C)O	5
CC1COC(Cn2cncn2)(c2cc3cc(Cl)cc(Cl)c3o2)O1 (stereo not drawn)	4
O=C(O)C(c1ccccc1Cl)N1CCc2sccc2C1 (stereo not drawn)	5
CC(C=O)(CO)CO	5
N[C@H](C(=O)O)c1ccc(O)cc1	5
Cc1nc2cc(Cl)ccc2o1	4
NCCCC(N)(C(=O)O)C(F)F (stereo not drawn)	5
CCCc1nc2ncnn2c(N(CC)CC)c1Cc1ccc(-c2ccccc2-c2nn[nH]n2)cc1	4
CC1=C(NC(=O)O)/C(=N/C(=O)CN)C=CC1(NC(=O)O)c1cccc(C2=CC=C/C(=N\C(=O)CN)C2C)c1 (stereo not drawn)	5
CCCCCCOc1ccccc1C(N)=O	5
O=C1NCCCN1	5
Cc1[nH]n(-c2ccccc2)c(=O)c1N=Nc1ccc(-c2ccc(N=Nc3c(C)[nH]n(-c4ccccc4)c3=O)c(Cl)c2)cc1Cl	5
CCCCCCCCCCCCCCCCCC#N	5
CC(C)CC(=O)OC1CC(C)CCC1C(C)C (stereo not drawn)	5
CCC(C)n1ncn(-c2ccc(N3CCN(c4ccc(O)cc4)CC3)cc2)c1=O (stereo not drawn)	5
